Measurements published in patent US7824687B2, “Clustered multi-antigenic carbohydrate constructs, methods for their preparation, and uses thereof” (Sloan-Kettering Institute For Cancer Research, priority 1999, dated 2010).

How the values were obtained:
[1] = test system: GD3-KLH and MUC1-KLH conjugates; conditions: mouse; cited from earlier work
[2] = test system: monoclonal antibody F12; assay: Binding to monoclonal antibody F12 (ELISA, immune thin layer chromatography, inhibition)
Source text: In yet another example, a fucosyl GM1-KLH glycoconjugate is generated according to the method of the present invention, as discussed in Example 1. […] Clearly, the synthetic fucosyl GM1 pentenyl glycoside provides the antigenic epitope with which F12 reacts on SCLC cells.

Row | binding to monoclonal antibody F12 ([2]; ELISA and immune thin layer chromatography assays, prior to conjugation) | inhibition of reactivity of natural fucosyl GM1 with F12 ([2]; preincubation of F12) | Substance | augmentation of antibody responses compared to the conjugates alone [1]
1 |  |  | QS-21 | 1000-100,000 fold
2 | shown to bind | completely inhibits | fucosyl GM1 pentenyl glycoside [n-pentenyl fucosyl GM1] | 
